Results taken from patent US20220273768A1 (The George Washington University, priority 2019, published 2022).
Where two headings read alike, the source gives them in different places.

Assays:
[1] = system: hypoglossal motoneurons (HGN); assay: Excitatory post-synaptic currents in HGNs evoked by photoexcitation of ChR2 fibers from LepR^b+ neurons; assay type: cell-based, mouse
[2] = system: hypoglossal motoneurons (HGN); assay: HGN firing per fictive inspiratory burst in bursting slice preparation; assay type: cell-based, mouse; conditions: DAMGO 500 nM; then leptin 200 nM with DAMGO; prior to DAMGO 3-5
[3] = system: hypoglossal neurons (HGNs); assay: Excitatory post-synaptic currents (EPSCs) recorded in vitro from HGNs; assay type: cell-based, mouse; conditions: for spontaneous excitatory post-synaptic currents (EPSCs) in HGNs: FIG. 7, DAMGO then leptin added to DAMGO; for EPSC frequency in HGNs: FIG. 16, n=7, DAMGO focally applied, then 200 nM leptin co-infusion
[4] = system: DIO C57BL/6J mice
[5] = system: lean C57BL/6J mice; assay: Barometric plethysmography during subcutaneous leptin infusion in lean mice; assay type: in vivo, mouse; conditions: SC osmotic pump leptin 0.2 mg/kg/hour
From the text: Leptin increases minute ventilation, stimulates control of breathing and reverses UAO during sleep in leptin deficient ob/ob mice as shown in Pho et al., Journal of Applied Physiology 120, 78-86 (2016); Yao et al., Sleep 39, 1097-106 (2016); and O'Donnell et al., American Journal of Respiratory & Critical Care Medicine 159, 1477-1484 (1999), the disclosures of which are incorporated herein in their entirety. As such, it was proposed that high doses of leptin also stimulate ventilation and control of breathing in lean C57BL/6J mice. […] In six mice, a subcutaneous osmotic pump (DURECT, Cupertino, Calif., USA) filled with saline was implanted and baseline minute ventilation (VE) and the hypoxic ventilatory response (HVR) were measured by exposing mice to room air and 10% O2. […] VE normalized to body weight and the hypoxic ventilatory response (HVR) was calculated as the ratio of [VE (10% O2)−VE (20.9% O2) to the change in FiO2 (ΔFiO2=10.9% between normoxia and hypoxia) and reported as ΔVE/ΔFiO2. Subsequently, a subcutaneous osmotic pump for leptin infusion (0.2 mg/kg/hour) was implanted and the HVR was measured. […]

[6] = Leptin detection in brain tissue by ELISA after IN administration; assay type: in vivo, mouse; conditions: IN leptin 0.8 mg/kg in 1% BSA, 20 minutes, vs IN vehicle
Experimental: To determine the effect of intranasal (IN) leptin in the brain, leptin detection in brain tissue by ELISA was assessed after IN administration. In brief, male lean C57BL/6J mice (30 g of weight), were treated with IN leptin (24 μl) at 0.8 mg/kg in 1% BSA or 1% BSA and sacrificed 20 minutes later. Brains were extracted, then the olfactory bulbs, hypothalami and medullas were isolated, quick frozen in liquid nitrogen and stored at −80° C. For leptin level measurements, brain tissue was homogenized in 160 mM KCL, 25 mM HEPES, 0.2% Triton X-100 and protease inhibitors. Total protein concentrations were determined using a BioRad DC Protein kit and ELISA for leptin was performed with a Millipore kit.

[7] = system: DIO C57BL/6J mice; assay: Sleep study (plethysmography) in diet-induced obese mice, mouse model of OSA; assay type: in vivo; conditions: IN leptin 0.4 mg/kg single dose
[8] = system: STAT3 phosphorylation (pSTAT3) via LepR^b; assay: Leptin signaling by STAT3 phosphorylation (pSTAT3) immunofluorescent staining of brain sections; assay type: in vivo, mouse; conditions: DIO mice
[9] = system: LepR^b+ neurons in the dorsomedial hypothalamus (DMH); assay type: cell-based, mouse
[10] = system: lean C57BL/6J mice; assay: Blood pressure by telemetry during SC leptin infusion; assay type: in vivo, mouse
Experimental: Blood pressure was measured by telemetry (DSI) implanted in the left femoral artery of freely behaving lean C57BL/6J mice at baseline and during leptin infusion (120 μg/day for 3 days via a SC pump) before and after carotid body (CB) denervation or sham surgery.

[11] = Plasma leptin levels after IN and IP leptin; assay type: in vivo, mouse; conditions: IN leptin, 1, 3 and 6 hours vs baseline, n=4
Experimental: FIG. 18 depicts a graph showing plasma leptin levels measured 1, 3, and 6 hours after IN and IP leptin administrations, as compared to baseline, n=4, for each treatment. *p<0.05.

[12] = SC leptin 120 μg/day for 3 days

With `N[C@H](CCCP(=O)(O)O)C(=O)O` [APV, (2R)-amino-5-phosphonovaleric acid] the “photoexcitation-evoked excitatory post-synaptic currents in HGNs” value [1] was “blunted, but not blocked”.
For `N#Cc1cc2c(cc1[N+](=O)[O-])=NC(=O)C(=O)N=2` [CNQX, 6-cyano-7-nitroquinoxaline-2,3-dione], the “photoexcitation-evoked excitatory post-synaptic currents in HGNs” value ([1]; 50 μM APV and 50 μM CNQX applied together) was “blunted, but not blocked”.
For `C[C@@H](NC(=O)[C@@H](N)Cc1ccc(O)cc1)C(=O)NCC(=O)N(C)[C@@H](Cc1ccccc1)C(=O)NCCO` [DAMGO, [D-Ala^2, N-MePhe^4, Gly-ol]-enkephalin, reference compound], the “action potentials in HGNs associated with each burst” value [2] was 2-3 action potentials, the “spontaneous excitatory post-synaptic currents (EPSCs) in HGNs” value [3] was “rapidly depressed” and the “EPSC frequency in HGNs” value [3] was “significantly reduced”.
With `CN1CC[C@]23c4c5ccc(O)c4O[C@H]2[C@@H](O)C=C[C@H]3[C@H]1C5` [morphine, reference compound] the “IFL prevalence (frequency of upper airway obstruction)” value ([4]; FIG. 3B experiment, DIO mice n=4, morphine 10 mg/kg) was 39.6±9.3 % of all breaths, the “maximal inspiratory flow (Vimax) during IFL” value ([4]; FIG. 3C, DIO mice n=4, morphine 10 mg/kg) was “decreasing” and the “minute ventilation during IFL (VE IFL)” value ([4]; FIG. 3D, DIO mice n=4, morphine 10 mg/kg) was “decreasing”. The “respiratory rate during NFL breathing” value ([4]; FIG. 3E experiment, morphine 10 mg/kg) was “decreased”, the “non-flow limited breathing (NFL), respiratory depression” value ([4]; FIG. 3E, DIO mice n=4, morphine 10 mg/kg) was “suppressed” and the “respiratory depression (minute ventilation, VE)” value ([4]; IP morphine 80 mg/kg, DIO mice) was “induced respiratory depression”. The “number of apneic events during NREM sleep” value ([4]; NREM sleep, n=9, morphine 10 mg/kg, baseline 13.9±3.7) was 91.5±20.0, the “frequency of upper airway obstruction (IFL breaths), NREM sleep” value ([4]; morphine 10 mg/kg, baseline 11.9±5.5%) was 56.8±4.8 % of all breaths and the “minute ventilation during obstructed (IFL) breathing, NREM sleep” value ([4]; n=5, morphine 10 mg/kg) was “significantly decreased”. For the same compound, the “maximal inspiratory flow (Vimax) during obstructed (IFL) breathing, NREM sleep” value ([4]; n=5, morphine 10 mg/kg, baseline 3.4±0.4) was 2.3 ± 0.5 mL/min, the “minute ventilation (VE), non-flow limited respiration, NREM sleep” value ([4]; n=9, morphine 10 mg/kg, baseline 1.2±0.1) was 0.7 ± 0.1 mL/min/g and the “inspiratory flow limitation (IFL)” value ([4]; sub-lethal IP morphine 80 mg/kg, DIO mice) was “induced severe inspiratory flow limitation”.
With leptin the “hypoxic ventilatory response (HVR, ΔVE/ΔFiO2)” value ([5]; 10% O2 vs room air, saline pump 0.23) was 0.31 ml/minutes/grams/ΔFiO2, the “minute ventilation (VE)” value ([5]; wakefulness, saline pump 1.1) was 1.5 ml/minutes/grams and the “leptin levels in the hypothalamus” value [6] was “strong increase”. For the same compound, the “leptin levels in the medulla” value [6] was “significantly increased”, the “leptin levels in the olfactory bulb” value [6] was “significantly increased” and the “ODI (number of oxyhemoglobin desaturations ≥4%/hour)” value [7] was “dramatic decrease”. The “maximal inspiratory flow (Vimax) during flow limited obstructed breathing” value [7] was “increased”, the “minute ventilation (VE) during flow limited obstructed breathing” value [7] was “increased” and the non-flow limited breathing [7] was “increased”. The “signaling (STAT3 phosphorylation) in dorsal medulla, RVLM, CC, DMV, NA, XII” value ([8]; IN leptin single dose, one hour) was “increased”, the “number of pSTAT3-positive cells in the hypothalamus and medulla” value ([8]; IN leptin vs IP leptin and vehicle groups) was “highest” and the “signaling (STAT3 phosphorylation) in dorsal medulla or RVLM” value ([8]; IP leptin single dose, one hour) was “no effect”. The “effect on LepR^b+ neurons (firing)” value [9] was “excited”, the “action potentials in HGNs associated with each burst” value [2] was 3-4 action potentials and the “spontaneous excitatory post-synaptic currents (EPSCs) in HGNs” value [3] was “successfully reversed”. For the same compound, the “EPSC frequency in HGNs” value [3] was “restored”, the “increase in blood pressure at night” value [10, 12] was 16 mm Hg and the “increase in blood pressure during the day (9 am-9 pm, light phase)” value [10, 12] was 13 mm Hg. For the same compound, the “leptin-mediated increase in blood pressure after carotid body (CB) denervation” value ([10]; SC leptin 120 μg/day, not abolished by sham surgery) was “completely abolished”, the plasma leptin levels [11] was “did not increase” and the “IFL prevalence (frequency of upper airway obstruction)” value ([4]; mouse, in vivo) was “decreased”. The “apnea-hypopnea index (AHI)” value ([4]; mouse, in vivo) was “dramatically reduced”, the “frequency of upper airway obstruction (IFL breaths), NREM sleep” value ([4]; mouse, in vivo) was “decreased” and the “inspiratory flow limitation (IFL)” value ([4]; mouse, in vivo) was “markedly improved”. For the same compound, the “leptin effects on apneas, VE, IFL frequency, VImax and VE during IFL” value ([4]; mouse, in vivo) was “no longer significant”, the “maximal inspiratory flow (Vimax) during IFL” value ([4]; mouse, in vivo) was “increases” and the “maximal inspiratory flow (Vimax) during obstructed (IFL) breathing, NREM sleep” value ([4]; mouse, in vivo) was “reversals of morphine-induced reductions”. For the same compound, the “minute ventilation (VE), non-flow limited respiration, NREM sleep” value ([4]; mouse, in vivo) was “increase”, the “minute ventilation during IFL (VE IFL)” value ([4]; mouse, in vivo) was “increases” and the “minute ventilation during obstructed (IFL) breathing, NREM sleep” value ([4]; mouse, in vivo) was “reversals of morphine-induced reductions”. For the same compound, the “non-flow limited breathing (NFL), respiratory depression” value ([4]; mouse, in vivo) was “prevented”, the “number of apneic events during NREM sleep” value ([4]; mouse, in vivo) was “decreased” and the “respiratory depression (minute ventilation, VE)” value ([4]; mouse, in vivo) was “prevented”. For the same compound, the respiratory rate ([4]; mouse, in vivo) was “increasing”, the “respiratory rate during NFL breathing” value ([4]; mouse, in vivo) was “did not change” and the “tidal volume (VT)” value ([4]; mouse, in vivo) was “increasing”. For the same compound, the “tidal volume during NFL breathing” value ([4]; mouse, in vivo) was 0.44±0.03.
